Where a SMILES comes first, the peptide text is derived from it. [ ]: non-standard residue; d: D form. The star is where a group is joined. Octanoyl = CCCCCCCC(=O)*; Dap = NC[C@H](N)C(=O)O
What was measured:
mouse GOAT = molecular target: T1, mouse GOAT (Mus musculus, UniProt P0C7A3); test: In vitro octanoylation assay: [3H]octanoyl transfer from octanoyl CoA to proghrelin-His8 by membranes of Sf9 cells expressing GOAT; type: biochemical; details: for inhibition of GOAT activity (qualitative): all concentrations tested / concentration not stated; for GOAT inhibitory activity compared with PH1147 / GOAT inhibitory activity/potency compared with BK1114: concentration not given; for GOAT inhibition in vitro compared with PH1147: 100 μM concentration; for dose response inhibition of GOAT activity in vitro / inhibition of GOAT activity at high concentration / IC50: Sf9 membranes; for dose response inhibition of GOAT activity in vitro: mouse His10-GOAT, 3% DMSO; for inhibition of GOAT activity at high concentration: 500 μM; for inhibition of GOAT activity at high concentration / IC50: mouse GOAT; for IC50: read-out: IC50 for GOAT inhibition in vitro
T1 construct: made in house; host or cells: Sf9 insect cells (baculovirus); crude membrane fraction used
T1 sequence (P0C7A3 1-435): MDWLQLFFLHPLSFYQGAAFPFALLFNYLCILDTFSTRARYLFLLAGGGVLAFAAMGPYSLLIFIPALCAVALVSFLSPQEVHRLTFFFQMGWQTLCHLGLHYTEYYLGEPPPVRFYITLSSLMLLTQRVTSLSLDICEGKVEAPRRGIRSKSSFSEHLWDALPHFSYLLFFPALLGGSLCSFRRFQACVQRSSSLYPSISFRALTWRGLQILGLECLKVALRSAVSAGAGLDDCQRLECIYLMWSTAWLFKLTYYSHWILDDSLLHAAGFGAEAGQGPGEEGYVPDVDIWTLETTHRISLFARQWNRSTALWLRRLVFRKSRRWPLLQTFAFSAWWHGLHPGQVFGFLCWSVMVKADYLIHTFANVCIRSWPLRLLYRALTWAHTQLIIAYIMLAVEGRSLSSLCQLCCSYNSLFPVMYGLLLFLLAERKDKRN
Description: The assay we used is described in copending U.S. Ser No. 12/167,917, filed: Jul. 3, 2008. For baculoviral infection of insect cells, mouse GOAT cDNA was inserted into pFastBac HT-A (His10-tag) (Invitrogen), and baculovirus was generated. Sf9 insect cells were cultured, set up on day 0 at a density of 5×10^5 cells/ml, and infected on day 1 with baculovirus encoding His 10-GOAT at a density of 1×10^6 cells/ml. Cells were harvested 48 h post-infection and washed once with phosphate-buffered saline.
Each pellet of Sf9 cells (obtained from 1 liter of cell culture) was disrupted with a Dounce homogenizer (40 strokes) on ice in 50 ml of buffer containing 50 mM Tris-Cl (pH 7.0), 150 mM NaCl, 1 mM sodium EDTA, 1 mM dithiothreitol, 100 μM bis(4-nitrophenyl) phosphate, 2.5 μg/ml aprotinin, 20 μg/ml phenylmethylsulfonyl fluoride, 10 μg/ml leupeptin, and 10 μg/ml pepstatin A. After an initial centrifugation at 3,000 g for 5 min at 4° C., the supernatant was further centrifuged at 100,000 g for 30 min at 4° C. to obtain a membrane fraction, which was stored at −80° C. until the time of assay. Just prior to assay, the membranes were suspended in 50 mM HEPES-NaOH (pH 7.0) and then passed through a 22-gauge needle 10 times. After centrifugation at 1,000 g for 1 min to remove aggregated materials, the supernatant (hereafter referred as membranes) was used for assays.
Unless otherwise stated, the standard assay mixture contained 50 mM HEPES-NaOH (pH 7.0), 50 μM palmitoyl CoA or myristyl ether CoA, 50 μg membrane protein, 5 μg recombinant wild type or mutant versions of proghrelin-His8 and 1 μM [^3H]octanoyl CoA (11 dpm/fmol) in a final volume of 50 μl. […] The columns were washed at room temperature with 1 ml of buffer A followed by 3 ml of buffer A containing 25 mM imidazole. The His-tagged proghrelin was then eluted with 1 ml of buffer A containing 250 mM imidazole. Radioactivity present in the 250 mM-imidazole eluate was quantified by liquid scintillation counting.
Compounds PH1147-1152 were screened for GOAT inhibition in vitro using membrane fractions prepared from Sf9 insect cells infected with baculovirus encoding mouse GOAT. The assay (described in U.S. Ser. No. 12/167,917) measures the extent of specific acyl transfer from tritiated octanoyl CoA to recombinant His-tagged proghrelin. […] PH1147 was the simplest molecule in the set and lacked motifs present in the more complex analogs intended to be Ser2 and/or Phe4 mimetics.
(§1) Inhibition of GOAT activity by [Dap^3]octanoyl-ghrelin (1-5)-NH2 peptide and BK1114. Membranes from Sf9 cells infected with baculovirus encoding mouse His10-GOAT were prepared as previously described (Yang J, Zhao T J, Goldstein J L, Brown M S. 2008 PNAS, 105: 10750-10755). Each 50-μl reaction mixture contained 50 μg of membrane protein, 5 μg of proghrelin-His8, 50 μM palmitoyl CoA, 1 μM http[^3H]octanoyl CoA (11 dpm/fmol), and the experimental concentrations of peptide or compound in a final concentration of 3% (vol/vol) DMSO. Control values were established which represent the amount of [3H]octanoyl proghrelin formed in the absence of compound.
as §1, with “the synthetic compounds, BK1114, BK1176, BK1177” for “[Dap^3]octanoyl-ghrelin (1-5)-NH2 peptide”, “BK1183.” for “BK1114.”, “et al., 2008, supra).” for “J, Zhao T J, Goldstein J L, Brown M S. 2008 PNAS, 105: 10750-10755).”, “[^3H]octanoyl” for “http[^3H]octanoyl”, “the” for “peptide or”

GOAT = molecular target: T2, GOAT (Mus musculus, UniProt P0C7A3); test: Inhibition of GOAT activity in intact INS-1 cells co-expressing preproghrelin and GOAT (anti-ghrelin immunoblot); type: cell-based, Rat; details: 5 to 10 to 20 to 50 uM inhibitor, 24 h
T2 construct: expressed in transfected cells; host or cells: rat INS-1 cells stably co-expressing preproghrelin (pCMV-preproghrelin) and GOAT-T7 (pEF-GOAT-T7)
T2 sequence (P0C7A3 1-435): T1 sequence (P0C7A3 1-435)
Description: A stably transfected INS-1 cell line co-expressing preproghrelin and GOAT was established as described below. On day 0, cells were set up at a density of 1.5×10^6/100-mm dish in medium A (RPMI-1640 medium supplemented with 10 mM HEPES, 50 μM β-mercaptoethanol, 100 U/ml penicillin, and 100 μg/ml streptomycin) containing 10% (v/v) FCS. On day 2, fresh medium was added. On day 4, the cells received a direct addition of the indicated concentration of BK1114 delivered in DMSO. The final concentration of DMSO in each dish was 0.5%. 24 h after treatment, two dishes of cells from each condition were harvested and pooled, after which peptides were extracted from the cells, fractioned on reverse-phase chromatography, and subjected to immunoblot analysis with a 1:1000 dilution of rabbit anti-ghrelin antibody as previously described (Yang J, Brown M S, Liang G, Grishin N V, Goldstein J L (2008) Identification of the acyltransferase that octanoylates ghrelin, an appetite-stimulating peptide hormone. Cell 132:387-39). Films were exposed for 1 min.
Stably transfected cell line co-expressing preproghrelin and GOAT. Rat INS-1 cells were grown in monolayer at 37° C. in 8.8% CO2 as previously described (Id.). […] Expression of proghrelin and ghrelin was assessed by immunoblot analysis. […] Expression of GOAT-T7 was assessed by immunoblot analysis.

Q: How did the “inhibition of GOAT activity (qualitative)” value (from here on “inhibition … (qualitative)”) (mouse GOAT) turn out when CCC(C)(O)/C=C/[C@H](NC(=O)OCc1ccccc1)C(=O)OC (stereo partly shown) [BK1095] was run?
A: Its value is “little inhibition”.

Q: With CCCCCCCC(O)/C=C/[C@H](NC(=O)C(F)(F)F)C(=O)OC (stereo partly shown) [BK1112] as the compound, how does the “GOAT inhibitory activity compared with PH1147” value (mouse GOAT) read?
A: The value was “not helpful”.

Q: Which “GOAT inhibition in vitro compared with PH1147” value (mouse GOAT) does the source give for CCCCCCCC(C)(O)/C=C/C(NC(=O)OCc1ccccc1)C(=O)OC (stereo not shown) [BK1114] here?
A: Its value is “roughly twice as efficacious as PH1147”.

Q: And the “dose response inhibition of GOAT activity in vitro” value (mouse GOAT)?
A: The value was “dose response inhibition”.

Q: What about the “dose response inhibition of GOAT activity in intact cells” value (GOAT) of the same compound?
A: Its value is “dose inhibition response”.

Q: For CCCCCCCC(C)(O)/C=C/[C@H](NC(=O)OCc1ccccc1)C(=O)N[C@@H](Cc1ccccc1)C(=O)N[C@@H](CC(C)C)C(N)=O (stereo partly shown) [BK1129], which “GOAT inhibitory activity/potency compared with BK1114” value (mouse GOAT) is on record?
A: Its value is “Neither was as effective as BK1114”.

Q: With CCCCCCCC(C)(O)/C=C/[C@H](NC(=O)C(C)(C)CO)C(=O)OC (stereo partly shown) [BK1137] as the compound, how does the “inhibition … (qualitative)” value (mouse GOAT) read?
A: Its value is “essentially inactive”.

Q: How did the “inhibition … (qualitative)” value (mouse GOAT) turn out when CCCCCCCC(C)(O)/C=C/[C@H](NC(=O)C(C)(C)CO)C(=O)N[C@@H](Cc1ccccc1)C(=O)N[C@@H](CC(C)C)C(N)=O (stereo partly shown) [BK1141] was run?
A: The value was “retains some activity”.

Q: Which “GOAT inhibitory activity/potency compared with BK1114” value (mouse GOAT) does the source give for CCCCCCCC(C)(O)/C=C/[C@@H](NC(=O)OCc1ccccc1)C(=O)OC (stereo partly shown) [BK1149] here?
A: Its value is “comparable to BK1114”.

Q: With CCCCCCCC(O)(/C=C/[C@H](NC(=O)OCc1ccccc1)C(=O)OC)CCC (stereo partly shown) [BK1165] as the compound, how does the “GOAT inhibitory activity/potency compared with BK1114” value (mouse GOAT) read?
A: The value was “without compromising activity”.

Q: With CCCCCCCC(=O)NC[C@H](NC(=O)OCc1ccccc1)C(=O)OC [LN1111622] as the compound, how does the “GOAT inhibitory activity/potency compared with BK1114” value (mouse GOAT) read?
A: The value was “does not perform as well as BK1114”.

Q: Which “inhibition of GOAT activity at high concentration” value (“inhibition … at high concentration” for short) (mouse GOAT) does the source give for CCCCCCCC(O)/C=C/[C@H](NC(=O)OCc1ccccc1)C(=O)OC (stereo partly shown) [PH1147] here?
A: The value was “greatest inhibition”.

Q: And the IC50 (mouse GOAT)?
A: Its IC50 is ~90 µM.

Q: How did the “inhibition … at high concentration” value (mouse GOAT) turn out when CCCCCCCC(O)CC[C@H](NC(=O)CC(C)(C)O)C(=O)OC (stereo partly shown) [PH1149] was run?
A: Its value is “inhibited GOAT activity”.

Q: For CCCCCCCC(O)CC[C@H](NC(=O)C(C)(C)CO)C(=O)OC (stereo partly shown) [PH1150], which “inhibition … at high concentration” value (mouse GOAT) is on record?
A: Its value is “inhibited GOAT activity”.

Q: For CCCCCCCC(=O)CC[C@H](NC(=O)OCc1ccccc1)C(=O)OC [PH1154a], which “GOAT inhibition in vitro compared with PH1147” value (mouse GOAT) is on record?
A: Its value is “comparably to PH1147”.

Q: And the “GOAT inhibition at higher concentrations” value (mouse GOAT; concentrations higher than 100 μM, compared with PH1147)?
A: Its value is “performed more poorly”.

Q: For CCCCCCCC(O)CC[C@@H](CO)NC(=O)[C@H](C)NC(=O)CNC (stereo partly shown) [PH1167], which “GOAT inhibitory activity compared with PH1147” value (mouse GOAT) is on record?
A: Its value is “neither PH1159 nor PH1167 possessed activity comparable to PH1147”.

Q: Which “GOAT inhibitory activity/potency compared with BK1114” value (mouse GOAT) does the source give for CCCCCCCC(C)(O)/C=C/[C@H](NC(=O)OCc1ccccc1)C(=O)NC(C)C (stereo partly shown) [PH1176a] here?
A: Its value is “do not improve activity”.

Q: How did the “GOAT inhibitory activity/potency compared with BK1114” value (mouse GOAT) turn out when CCCCCCCC(C)(O)C/C=C(/NC(=O)OCc1ccccc1)C(=O)NC(C)C (stereo not shown) [PH1176b] was run?
A: The value was “do not improve activity”.

Q: What does the source list for CCCCCCCC(=O)NC[C@H](NC(=O)[C@H](CO)NC(=O)CN)C(=O)N[C@@H](Cc1ccccc1)C(=O)N[C@@H](CC(C)C)C(N)=O [Structure 2, [Dap^3]octanoyl-ghrelin (1-5)-NH2, reference compound] (H-GS[Dap](Octanoyl)FL-NH2)?
A: IC50 (mouse GOAT): ~1.5 µM; dose response inhibition of GOAT activity in vitro (mouse GOAT): dose response inhibition
